This assay relates to human peripheral blood mononuclear cells (PBMCs). The assay is described as follows: ELISA assay of immunocyte activator: induction of IFN-γ in human PBMCs. The settings on record: 24 h, 37 °C, read-out: EC50 IFN-γ ratio (inducing human PBMCs to produce IFN-γ). In kind it is cell-based. How it is done:
The immune activity of each compound is represented by the function of inducing human peripheral blood mononuclear cells (PBMCs) to produce the immune cytokine IFN-γ by, and the EC50 values thereof are shown in Table 3.
• 1) Peripheral blood samples from healthy human volunteer were collected into heparin anticoagulant tubes to reach 5 mL of fresh blood, and PBS was added at a ratio of 1:1 to dilute the blood (2 mL+2 mL in conventional blood collection tubes). • 2) 5 mL of lymphocyte separation medium was put in a 15 mL sterile centrifuge tube for use. • 3) The diluted blood was aspirated and slowly added from 1 cm above the separation medium along the tube wall, so that the diluted blood overlaid the separation medium and formed a distinct interface therewith. • 4) The centrifuge tube was centrifuged at 2000 rpm at room temperature for 20 min. Now five layers formed in the centrifuge tube: the top layer was plasma layer, and the layer between the plasma layer and the lymphocyte separation medium was the lymphocyte layer as a white film. • 5) The mononuclear cell layer as a white film in the middle was aspirated carefully and mononuclear cells were aspirated as many as possible. The mononuclear cells were washed by more than 5 volumes of PBS twice, and each time, the mononuclear cells were centrifuged at 1500 rpm for 10 min. • 6) The supernatant was removed, then 1 mL of 1640 medium was added and mixed uniformly. A small amount of the mixture was taken for cell counting.
The prepared PBMCs were plated in a 96-well plate (Costar, 3894) (2×10^5 cells per well). Each compound in Table 3 was taken and added into the wells with plated cells at ten concentrations with uniform gradient distribution (0.0001-10 μM, diluted with […] medium containing […]).

Setting [1] is: Homo sapiens, PBMC, no pretreatment marked.

Molecules are shown by their SMILES. Read-outs that look alike come from different tables or passages of the source.

Turning to `COCCOc1nc(N)c2[nH]c(=O)n(Cc3ccc(CNC(=O)CCC(=O)N[C@@H](CCCCNC(=O)OCc4ccc(NC(=O)[C@H](CCCNC(N)=O)NC(=O)[C@@H](NC(=O)CCCCCN5C(=O)C=CC5=O)C(C)C)cc4)C(=O)NCCOCCOCCOCCOCCNC(=O)CCC(=O)N4Cc5ccccc5C#Cc5ccccc54)cc3)c2n1` [Compound K2], the EC50 under setting [1] was found to be 50 nM.
For `C=C(CN1CCC(Cn2c(=O)[nH]c3c(N)nc(OCCCC)nc32)CC1)C(=O)NCCOCCOCCOCCOCCNC(=O)CCC(=O)N1Cc2ccccc2C#Cc2ccccc21` [Compound K50], the EC50 under setting [1] came to 23 nM.
With `COCCOc1nc(N)c2[nH]c(=O)n(Cc3ccc(CNC(=O)CCC(=O)NC(CCCCc4cn(CCOCCOCCOCCNC(=O)CCN5C(=O)C=CC5=O)nn4)C(=O)N[C@H](C(=O)N[C@@H](CCCNC(N)=O)C(=O)Nc4ccc(COC(=O)NC[C@H](C)c5ccc(-c6c(O)cc(C)c7[nH]c(=O)c8sccc8c67)cc5)cc4)C(C)C)cc3)c2n1` (some centres unmarked) [Compound K3], under setting [1], the EC50 worked out at 200 nM.
Regarding `CCCCOc1nc(N)c2[nH]c(=O)n(Cc3cn(CCOCCOCCOCC(=O)N[C@H](CCCCN=[N+]=[N-])C(=O)O)nn3)c2n1` [Compound 102-N3], the EC50 under setting [1] came to 180 nM.
Still for that read-out and setting: as for `CC[C@H](C)[C@@H]([C@@H](CC(=O)N1CCCC1[C@H](OC)[C@@H](C)C(=O)N[C@H](C)[C@@H](O)c1ccccc1)OC)N(C)C(=O)[C@@H](NC(=O)[C@H](C(C)C)N(C)C(=O)OCc1ccc(NC(=O)[C@H](CCCNC(N)=O)NC(=O)[C@@H](NC(=O)C(CCCCc2cn(CCOCCOCCOCCNC(=O)CCN3C(=O)C=CC3=O)nn2)NC(=O)CCC(=O)NCc2ccc(Cn3c(=O)[nH]c4c(N)nc(OCCOC)nc43)cc2)C(C)C)cc1)C(C)C` (some centres unmarked) [Compound K1], the figure is 100 nM.
Turning to `CCCCOc1nc(N)c2nc(O)n(Cc3cn(CCOCCOCCOCCN=[N+]=[N-])nn3)c2n1` [GY155, reference compound], the EC50 (no pretreatment marked) amounted to 330 nM.
Consider `C=C(CN1CCC(Cn2c(=O)n(C(=O)NCCNC(=O)OCc3ccc(NC(=O)[C@H](CCCNC(N)=O)NC(=O)[C@@H](NC(=O)CCOCCOCCOCCOCCNC(=O)CCC(=O)N4Cc5ccccc5C#Cc5ccccc54)C(C)C)cc3)c3c(N)nc(O[C@@H](C)CCC)nc32)CC1)C(=O)OCC` [Compound K51], for which the EC50 (Note a: sample pretreated with human liver microsomal enzyme, 2 h) is 2 nM.
Consider `CCCCOc1nc(N)c2[nH]c(=O)n(Cc3cn(CCOCCOCCOCCn4cc(CCCCN(C[C@H](C)c5ccc(-c6c(O)cc(C)c7[nH]c(=O)c8sccc8c67)cc5)C(=O)OCc5ccc(NC(=O)[C@H](CCCNC(N)=O)NC(=O)[C@@H](NC(=O)CCCCCN6C(=O)C=CC6=O)C(C)C)cc5)nn4)nn3)c2n1` [Compound K19], for which, under setting [1], the EC50 was determined as 80 nM.
Consider `C=C(CC)C(=O)c1ccc(OCC(=O)NCc2ccc(Cn3c(=O)[nH]c4c(N)nc(OCCOC)nc43)cc2)c(Cl)c1Cl` [SZU-103, reference compound], for which the EC50 under setting [1] turned out to be 100 nM.
As to `C=C(CN1CCC(Cn2c(=O)[nH]c3c(N)nc(OCCCC)nc32)CC1)C(=O)O` [KJ-099], under setting [1], the EC50 is 420 nM.
In the case of `CCOC(=O)NC(=S)n1c(=O)n(Cc2ccc(CNC(=O)CCc3cn(CCOCCOCCOCCNC(=O)CCN4C(=O)C=CC4=O)nn3)cc2)c2nc(OCCOC)nc(N)c21` [Compound K15], the EC50 (Homo sapiens, PBMC, Note a: sample pretreated with human liver microsomal enzyme, 2 h) was found to be 12 nM.
Regarding `CCCCOc1nc(N)c2c(n1)c(Cc1ccc3c(c1)CN(C(=O)/C=C/C(=O)c1ccc(OC)cc1)CC3)cn2C(=O)OCc1ccc(NC(=O)[C@H](CCCNC(N)=O)NC(=O)[C@@H](NC(=O)CCOCCOCCOCCOCCN2C(=O)C=CC2=O)C(C)C)cc1` [Compound K13], the EC50 (Homo sapiens, PBMC, Note c: sample pretreated with Cathepsin-B (10 μg) in PBS, room temperature, 3 h) was determined as 110 nM.
Take `C=CC(=O)Nc1cc(Nc2nccc(-c3cn(C)c4ccccc34)n2)c(OC)cc1N(C)CCN(C)CCCCCCNC(=O)C(CCCCNC(=O)OCc1ccc(NC(=O)[C@H](CCCNC(N)=O)NC(=O)[C@@H](NC(=O)CCOCCOCCOCCOCCNC(=O)CCC(=O)N2Cc3ccccc3C#Cc3ccccc32)C(C)C)cc1)NC(=O)CCC(=O)NCc1ccc(Cn2c(=O)[nH]c3c(N)nc(OCCOC)nc32)cc1` (some centres unmarked) [Compound K37]: the EC50 (no pretreatment marked) is 220 nM.
In the case of `COCCOc1nc(N)c2[nH]c(=O)n(Cc3ccc(CNC(=O)CCC(=O)O)cc3)c2n1` [SZU-101, reference compound], the EC50 (no pretreatment marked) is 500 nM.

The record behind these values is US20260325661A1, “ANTIBODY-CONJUGATED IMMUNO-ACTIVATING SMALL MOLECULE COMPOUND, AND USE” (SHENZHEN CONJUGENIX PHARMACEUTICAL TECHNOLOGY CO., LTD, priority 2023, published 2026).
